The target in assay [1] is T1, Y91Q-rPepT1 (Oryctolagus cuniculus, UniProt P36836, Y91Q).
T1 construct: expressed in transfected cells; host or cells: Xenopus laevis oocytes injected with cRNA
T1 sequence (P36836 1-707 Y91Q): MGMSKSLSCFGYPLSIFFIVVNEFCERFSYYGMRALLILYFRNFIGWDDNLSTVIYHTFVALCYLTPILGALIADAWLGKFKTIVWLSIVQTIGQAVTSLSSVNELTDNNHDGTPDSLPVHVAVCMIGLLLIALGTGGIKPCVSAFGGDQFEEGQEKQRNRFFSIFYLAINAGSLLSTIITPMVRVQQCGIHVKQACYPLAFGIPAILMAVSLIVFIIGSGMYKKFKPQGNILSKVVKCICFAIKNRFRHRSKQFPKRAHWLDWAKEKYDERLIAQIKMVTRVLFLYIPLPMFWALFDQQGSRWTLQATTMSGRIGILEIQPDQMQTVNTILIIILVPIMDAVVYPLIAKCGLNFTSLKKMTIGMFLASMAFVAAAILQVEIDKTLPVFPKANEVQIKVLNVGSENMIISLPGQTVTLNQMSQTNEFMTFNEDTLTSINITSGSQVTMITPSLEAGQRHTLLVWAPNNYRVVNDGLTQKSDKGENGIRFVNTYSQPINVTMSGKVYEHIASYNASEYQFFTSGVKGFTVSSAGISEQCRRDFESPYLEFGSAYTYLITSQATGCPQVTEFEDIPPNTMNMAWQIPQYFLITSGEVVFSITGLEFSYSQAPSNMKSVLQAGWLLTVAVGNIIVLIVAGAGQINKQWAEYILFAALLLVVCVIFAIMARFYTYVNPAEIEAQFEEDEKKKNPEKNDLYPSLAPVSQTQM
Briefly: Competition of [3H]-D-Phe-L-Gln uptake into Xenopus oocytes, Ki. In kind it is cell-based, rabbit. The conditions noted are these: pHout 7.4; against 0.4 μM [3H]-D-Phe-L-Gln uptake. The method, then:
(§1) rPepT1 constructs were linearised with XbaI (New England Biolabs, UK) and cRNA generated by in vitro transcription (T7 mMessage mMachine, Ambion, Cambridgeshire, UK). Xenopus laevis oocytes were obtained under MS222 anaesthesia (0.2%, w/v) in accordance with the UK Animals (Scientific Procedures) Act, 1986, and maintained at 18 °C in modified Barth's medium (88 mM NaCl, 1 mM KCl, 0.82 mM MgSO4, 2.4 mM NaHCO3, 0.42 mM CaCl2, 10 mM Hepes, 5 mM sodium pyruvate, 50 μg ml^−1 gentamicin (Fluka, Poole, UK), adjusted to pH 7.6 with 1 M NaOH). Transport measurements were performed at least 72 h after micro-injection of oocytes with 27nl cRNA (1 μg/μl), with medium changed daily.
(§2) Uptake of [^3H]-D-Phe-L-Gln (17.4 Ci/mmole, custom synthesised, Cambridge Research Biochemicals, Stockton-on-Tees, UK) was performed as previously described ([Meredith, 2004]). Briefly, 5 oocytes were incubated in 100 μl of uptake medium (95 mM NaCl, 2 mM KCl, 1 mM CaCl2, 0.42 mM MgCl2, 10 mM Tris/Hepes pH 7.4 or Tris/Mes pH 5.5) with tracer (0.4 μM) [^3H]-D-Phe-L-Gln. After incubation, the oocytes were washed sequentially five times in 1 ml of ice-cold 120 mM NaCl solution, lysed individually with 100 μl 2% (w/v) SDS and liquid scintillation counted. As a control non-injected oocytes were also incubated in uptake medium with D-Phe-L-Gln as above.
(§3) The affinity of wild-type and mutant rPepT1 transporters were assessed by competition studies with 0.4 μM [^3H]-D-Phe-L-Gln and Gly-L-Gln present in the uptake medium in concentrations from 0 to 2 mM using the protocol above, and the Ki calculated using the method of [Deves and Boyd (1989)].

For assay [2], the target named is T2, Y91R-rPepT1 (Oryctolagus cuniculus, UniProt P36836, Y91R).
T2 construct: expressed in transfected cells; host or cells: Xenopus laevis oocytes injected with cRNA
T2 sequence (P36836 1-707 Y91R): T1 sequence (P36836 1-707 Y91Q) with Q91R
Described as above. Format: cell-based, rabbit. Conditions: pHout 7.4; against 0.4 μM [3H]-D-Phe-L-Gln uptake. The method, then:
as §1, §2, §3

Changes are numbered by the printed parent chain. Where a SMILES comes first, the peptide text is derived from it.

On to `NCC(=O)N[C@@H](CCC(N)=O)C(=O)O` [Gly-L-Gln] (H-Gly-Gln-OH), for which the Ki – broadly, the dissociation constant of the complex between target and ligand, obtained from inhibition or displacement – was 30 ± 5 µM in assay [1] and 3 ± 1 µM in assay [2].

For the origin of these results see publication PMC3510438, “The transmembrane tyrosines Y56, Y91 and Y167 play important roles in determining the affinity and transport rate of the rabbit proton-coupled peptide transporter PepT1” (The International Journal of Biochemistry & Cell Biology, 2009).
